Target: T1, Fatty-acid amide hydrolase 1 [30-579] (Rattus norvegicus, UniProt P97612)
T1 construct: 30-579
T1 sequence (P97612 whole entry): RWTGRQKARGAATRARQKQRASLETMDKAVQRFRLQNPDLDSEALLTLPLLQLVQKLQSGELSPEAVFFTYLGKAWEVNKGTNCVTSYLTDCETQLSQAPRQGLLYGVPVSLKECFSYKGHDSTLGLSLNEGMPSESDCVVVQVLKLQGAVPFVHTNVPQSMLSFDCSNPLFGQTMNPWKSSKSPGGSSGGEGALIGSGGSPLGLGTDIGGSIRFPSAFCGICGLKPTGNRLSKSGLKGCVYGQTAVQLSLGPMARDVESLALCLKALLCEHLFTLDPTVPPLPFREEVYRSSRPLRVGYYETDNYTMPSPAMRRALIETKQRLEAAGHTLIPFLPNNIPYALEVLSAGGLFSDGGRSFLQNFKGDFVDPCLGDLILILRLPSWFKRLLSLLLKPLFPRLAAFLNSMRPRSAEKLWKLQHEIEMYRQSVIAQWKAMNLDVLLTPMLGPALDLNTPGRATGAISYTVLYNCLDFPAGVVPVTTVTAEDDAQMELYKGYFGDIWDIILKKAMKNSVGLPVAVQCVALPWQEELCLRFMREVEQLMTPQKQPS
Assay: FAAH Assay
Details: pH 7; 4 °C
Method: Frozen (−80 °C) brains (minus cerebella) from adult Wistar or Sprague-Dawley rats were thawed and homogenized in 20 mM HEPES, 1 mM MgCl2, pH 7.0. and thereafter centrifuged at ~35000 × g for 20 min at 4°C. […] After a further centrifugation, the pellets were resuspended in 50 mMTris-HCl buffer, pH 7.4, containing 1 mM EDTA and 3 mM MgCl2 and frozen at −80°C in aliquots until used for assay. […] Reactions were stopped by placing the tubes on ice. Final assay concentrations of the solvents used for the compounds (ethanol or DMSO) were in the range 1-5%. Activated charcoal (80 μL + 320 μL 0.5 M HCl) was added and the samples were mixed and left at room temperature for about 30 min. Following centrifugation at 2500 rpm for 10 min, aliquots (200 μL) of the supernatants were analyzed for tritium content by liquid scintillation spectroscopy with quench correction. Blank values were obtained by the use of buffer rather than homogenate.

SMILES | IC50 [µM]
Cc1cccc(NC(=O)CNC(=O)C(C)c2ccc(CC(C)C)cc2)n1 (configuration not stated) [2-(4-Isobutylphenyl)-N-(2-(6-methylpyridin-2-ylamino)-2-oxoethyl)propanamide (10)] | 150
CC(C)Cc1ccc(C(C)C(=O)NCC(=O)NCc2ccccn2)cc1 (configuration not stated) [2-(4-Isobutylphenyl)-N-(2-oxo-2-(pyridin-2-ylmethylamino)ethyl)propanamide (12)] | 90
CC(C)Cc1ccc(C(C)C(=O)NCC(=O)NCc2cccnc2)cc1 (configuration not stated) [2-(4-Isobutylphenyl)-N-(2-oxo-2-(pyridin-3-ylmethylamino)ethyl)propanamide (13)] | 37
Cc1cccnc1NC(=O)CCNC(=O)C(C)c1ccc(CC(C)C)cc1 (configuration not stated) [2-(4-Isobutylphenyl)-N-(3-(3-methylpyridin-2-ylamino)-3-oxopropyl)propanamide (11)] | 9.3
Cc1cccnc1NC(=O)C(C)c1ccc(CC(C)C)cc1 (configuration not stated) [2-(4-isobutylphenyl)-N-(3-methylpyridin-2-yl)propanamide] | 0.65
Cc1cccnc1OC(=O)C(C)c1ccc(CC(C)C)cc1 (configuration not stated) [3-Methylpyridin-2-yl 2-(4-isobutylphenyl)propanoate (3)] | 115
CC(=O)Nc1ccc(OC(=O)CNC(=O)C(C)c2ccc(CC(C)C)cc2)cc1 (configuration not stated) [4-Acetamidophenyl 2-(2-(4-isobutylphenyl)propanamido)acetate (8)] | 1.5
